Assay results published in patent publication US20230058171A1, “NEW ORAL PHARMACEUTICAL COMPOSITION FOR CANCER THERAPY” (BOEHRINGER INGELHEIM INTERNATIONAL GMBH, priority 2021, published 2023).

Tests used:
[1] = test system: tumors; test: Trial 1403-0002 combination with ezabenlimab (and anti-LAG3-1): tumor response; type: in vivo, human
[2] = test system: patients; test: Trial 1403-0002 combination with ezabenlimab (and anti-LAG3-1): adverse events; conditions: for AEs leading to Discontinuation: Dose limiting toxicity, % / AEs leading to Discontinuation: Other adverse event, % / Patients with Dose limiting toxicity (cycle one), % / Serious AEs: Cogenital Anomaly or Birth Defect, % / Serious AEs: Is Life Threatening, % / Serious AEs: Other Medically Important Serious Event, % / Serious AEs: Persists of Signif. Disability/Incapacity, % / Serious AEs: Requires or Prolongs Hospitalization, % / Serious AEs: Results in Death, % / Subjects with AEs leading to Discontinuation of trial drug, % / Subjects with AEs leading to dose reduction of trial drug, % / Subjects with any AE, % / Subjects with immune-related AEs, % / Subjects with infusion related reactions, % / Subjects with investigator defined drug-related AEs, % / Subjects with maximum CTC Grade 1, % / Subjects with maximum CTC Grade 2, % / Subjects with maximum CTC Grade 3, % / Subjects with maximum CTC Grade 4, % / Subjects with maximum CTC Grade 5, % / Subjects with serious AEs, %: triple combination D1 q3w
[3] = triple combination (11 treated)
[4] = double combination with 240 mg ezabenlimab, 15 patients

Cc1c(C(=O)O)ccc2c3n(nc12)[C@@H]1[C@H](C3)N(CC2CC2)[C@@]2(C(=O)Nc3cc(Cl)ccc32)[C@H]1c1cccc(Cl)c1F [MDM2-antagonist of formula I, (2′S,3′S,3a'S,10a'S)-6-chloro-3′-(3-chloro-2-fluorophenyl)-1′-(cyclopropylmethyl)-6′-methyl-2-oxo-1,2,3′,3a′,10′,10a′-hexahydro-1′H-spiro[indole-3,2′-pyrrolo[2′,3′:4,5]pyrrolo[1,2-b]indazole]-7′-carboxylic acid]
patients with confirmed partial response (PR) ([1]; double combination with 240 mg ezabenlimab D1 q3w, nine evaluable patients): four | patients with confirmed partial response (PR) ([1]; double combination, 30 mg + 240 mg ezabenlimab D1 q3w): one | patients with unconfirmed PR ([1]; double combination, 30 mg + 240 mg ezabenlimab D1 q3w, adenocarcinoma): one | patients with confirmed partial response (PR) ([1]; double combination, 45 mg + 240 mg ezabenlimab D1 q3w): three | patients with stable disease ([1]; double combination, nine evaluable patients): Four | Confirmed partial response, % of patients [1, 3]: (9.1) % | Confirmed partial response, number of patients [1, 3]: 1 | Disease control, % of patients [1, 3]: (72.5) % | Disease control, number of patients [1, 3]: 8 | Progressive disease, % of patients [1, 3]: (18.2) % | Progressive disease, number of patients [1, 3]: 2 | Stable disease, number of patients [1, 3]: 7 | Unconfirmed partial response, % of patients [1, 3]: (9.1) % | Unconfirmed partial response, number of patients [1, 3]: 1 | Partial Responses (PRs), number ([1]; triple combination, MDM2-amplified liposarcoma and MDM2-amplified urothelial carcinoma patient): 2 | DLTs reported after cycle 1 [2, 4]: Four | patients with Grade ≥3 adverse events [2, 4]: eight | patients with Grade ≥3 anemia [2, 4]: 6 patients | patients with Grade ≥3 lymphopenia [2, 4]: 3 patients | patients with Grade ≥3 thrombocytopenia [2, 4]: 4 patients | patients with a DLT during cycle 1 ([2]; double combination with 240 mg ezabenlimab, 15 patients, Grade 2 neutropenia at 45 mg): One | safety profile ([2]; double combination, 30 mg or 45 mg + 240 mg ezabenlimab D1 q3w): manageable safety profile | AEs leading to Discontinuation: Dose limiting toxicity, % ([2]; 10 mg): 0% | AEs leading to Discontinuation: Other adverse event, % ([2]; 10 mg): 0% | Patients with Dose limiting toxicity (cycle one), % ([2]; 10 mg): 0% | Serious AEs: Cogenital Anomaly or Birth Defect, % ([2]; 10 mg): 0% | Serious AEs: Is Life Threatening, % ([2]; 10 mg): 0% | Serious AEs: Other Medically Important Serious Event, % ([2]; 10 mg): 0% | Serious AEs: Persists of Signif. Disability/Incapacity, % ([2]; 10 mg): 0% | Serious AEs: Requires or Prolongs Hospitalization, % ([2]; 10 mg): 0% | Serious AEs: Results in Death, % ([2]; 10 mg): 0% | Subjects with AEs leading to Discontinuation of trial drug, % ([2]; 10 mg): 0% | Subjects with AEs leading to dose reduction of trial drug, % ([2]; 10 mg): 0% | Subjects with any AE, % ([2]; 10 mg): 100% | Subjects with immune-related AEs, % ([2]; 10 mg): 0% | Subjects with infusion related reactions, % ([2]; 10 mg): 33.3% | Subjects with investigator defined drug-related AEs, % ([2]; 10 mg): 100% | Subjects with maximum CTC Grade 1, % ([2]; 10 mg): 33.3% | Subjects with maximum CTC Grade 2, % ([2]; 10 mg): 66.7% | Subjects with maximum CTC Grade 3, % ([2]; 10 mg): 0% | Subjects with maximum CTC Grade 4, % ([2]; 10 mg): 0% | Subjects with maximum CTC Grade 5, % ([2]; 10 mg): 0% | Subjects with serious AEs, % ([2]; 10 mg): 0% | AEs leading to Discontinuation: Dose limiting toxicity, % ([2]; 20 mg): 0% | AEs leading to Discontinuation: Other adverse event, % ([2]; 20 mg): 0% | Patients with Dose limiting toxicity (cycle one), % ([2]; 20 mg): 0% | Serious AEs: Cogenital Anomaly or Birth Defect, % ([2]; 20 mg): 0% | Serious AEs: Is Life Threatening, % ([2]; 20 mg): 0% | Serious AEs: Other Medically Important Serious Event, % ([2]; 20 mg): 0% | Serious AEs: Persists of Signif. Disability/Incapacity, % ([2]; 20 mg): 0% | Serious AEs: Requires or Prolongs Hospitalization, % ([2]; 20 mg): 66.7% | Serious AEs: Results in Death, % ([2]; 20 mg): 0% | Subjects with AEs leading to Discontinuation of trial drug, % ([2]; 20 mg): 0% | Subjects with AEs leading to dose reduction of trial drug, % ([2]; 20 mg): 0% | Subjects with any AE, % ([2]; 20 mg): 100% | Subjects with immune-related AEs, % ([2]; 20 mg): 33.3% | Subjects with infusion related reactions, % ([2]; 20 mg): 0% | Subjects with investigator defined drug-related AEs, % ([2]; 20 mg): 100% | Subjects with maximum CTC Grade 1, % ([2]; 20 mg): 0% | Subjects with maximum CTC Grade 2, % ([2]; 20 mg): 0% | Subjects with maximum CTC Grade 3, % ([2]; 20 mg): 100% | Subjects with maximum CTC Grade 4, % ([2]; 20 mg): 0% | Subjects with maximum CTC Grade 5, % ([2]; 20 mg): 0% | Subjects with serious AEs, % ([2]; 20 mg): 66.7% | AEs leading to Discontinuation: Dose limiting toxicity, % ([2]; 30 mg): 0% | AEs leading to Discontinuation: Other adverse event, % ([2]; 30 mg): 0% | Patients with Dose limiting toxicity (cycle one), % ([2]; 30 mg): 0% | Serious AEs: Cogenital Anomaly or Birth Defect, % ([2]; 30 mg): 0% | Serious AEs: Is Life Threatening, % ([2]; 30 mg): 0% | Serious AEs: Other Medically Important Serious Event, % ([2]; 30 mg): 0% | Serious AEs: Persists of Signif. Disability/Incapacity, % ([2]; 30 mg): 0% | Serious AEs: Requires or Prolongs Hospitalization, % ([2]; 30 mg): 66.7% | Serious AEs: Results in Death, % ([2]; 30 mg): 0% | Subjects with AEs leading to Discontinuation of trial drug, % ([2]; 30 mg): 0% | Subjects with AEs leading to dose reduction of trial drug, % ([2]; 30 mg): 33.3% | Subjects with any AE, % ([2]; 30 mg): 100% | Subjects with immune-related AEs, % ([2]; 30 mg): 0% | Subjects with infusion related reactions, % ([2]; 30 mg): 0% | Subjects with investigator defined drug-related AEs, % ([2]; 30 mg): 100% | Subjects with maximum CTC Grade 1, % ([2]; 30 mg): 0% | Subjects with maximum CTC Grade 2, % ([2]; 30 mg): 33.3% | Subjects with maximum CTC Grade 3, % ([2]; 30 mg): 33.3% | Subjects with maximum CTC Grade 4, % ([2]; 30 mg): 33.3% | Subjects with maximum CTC Grade 5, % ([2]; 30 mg): 0% | Subjects with serious AEs, % ([2]; 30 mg): 66.7% | AEs leading to Discontinuation: Dose limiting toxicity, % ([2]; 45 mg): 0% | AEs leading to Discontinuation: Other adverse event, % ([2]; 45 mg): 0% | Patients with Dose limiting toxicity (cycle one), % ([2]; 45 mg): 0% | Serious AEs: Cogenital Anomaly or Birth Defect, % ([2]; 45 mg): 0% | Serious AEs: Is Life Threatening, % ([2]; 45 mg): 0% | Serious AEs: Other Medically Important Serious Event, % ([2]; 45 mg): 0% | Serious AEs: Persists of Signif. Disability/Incapacity, % ([2]; 45 mg): 0% | Serious AEs: Requires or Prolongs Hospitalization, % ([2]; 45 mg): 50.0% | Serious AEs: Results in Death, % ([2]; 45 mg): 0% | Subjects with AEs leading to Discontinuation of trial drug, % ([2]; 45 mg): 0% | Subjects with AEs leading to dose reduction of trial drug, % ([2]; 45 mg): 50.0% | Subjects with any AE, % ([2]; 45 mg): 100% | Subjects with immune-related AEs, % ([2]; 45 mg): 0% | Subjects with infusion related reactions, % ([2]; 45 mg): 0% | Subjects with investigator defined drug-related AEs, % ([2]; 45 mg): 100% | Subjects with maximum CTC Grade 1, % ([2]; 45 mg): 0% | Subjects with maximum CTC Grade 2, % ([2]; 45 mg): 50.0% | Subjects with maximum CTC Grade 3, % ([2]; 45 mg): 0% | Subjects with maximum CTC Grade 4, % ([2]; 45 mg): 50.0% | Subjects with maximum CTC Grade 5, % ([2]; 45 mg): 0% | Subjects with serious AEs, % ([2]; 45 mg): 50.0% | AEs leading to Discontinuation: Dose limiting toxicity, % ([2]; Total): 0% | AEs leading to Discontinuation: Other adverse event, % ([2]; Total): 0% | Patients with Dose limiting toxicity (cycle one), % ([2]; Total): 0% | Serious AEs: Cogenital Anomaly or Birth Defect, % ([2]; Total): 0% | Serious AEs: Is Life Threatening, % ([2]; Total): 0% | Serious AEs: Other Medically Important Serious Event, % ([2]; Total): 0% | Serious AEs: Persists of Signif. Disability/Incapacity, % ([2]; Total): 0% | Serious AEs: Requires or Prolongs Hospitalization, % ([2]; Total): 45.5% | Serious AEs: Results in Death, % ([2]; Total): 0% | Subjects with AEs leading to Discontinuation of trial drug, % ([2]; Total): 0% | Subjects with AEs leading to dose reduction of trial drug, % ([2]; Total): 18.2% | Subjects with any AE, % ([2]; Total): 100% | Subjects with immune-related AEs, % ([2]; Total): 9.1% | Subjects with infusion related reactions, % ([2]; Total): 9.1% | Subjects with investigator defined drug-related AEs, % ([2]; Total): 100% | Subjects with maximum CTC Grade 1, % ([2]; Total): 9.1% | Subjects with maximum CTC Grade 2, % ([2]; Total): 36.4% | Subjects with maximum CTC Grade 3, % ([2]; Total): 36.4% | Subjects with maximum CTC Grade 4, % ([2]; Total): 18.2% | Subjects with maximum CTC Grade 5, % ([2]; Total): 0% | Subjects with serious AEs, % ([2]; Total): 45.5%
